# Test results taken from EP4623908A1, “USE OF (-)-EPIGALLOCATECHIN GALLATE COMPOUND” (CF Pharmtech, Inc., priority 2022, dated 2024).
# Assays:
# [1] = biological target: T1, lysyl oxidase-like protein-2 (LOXL2) (Homo sapiens, UniProt Q9Y4K0); details: cited from earlier work
# T1 sequence (Q9Y4K0 26-774): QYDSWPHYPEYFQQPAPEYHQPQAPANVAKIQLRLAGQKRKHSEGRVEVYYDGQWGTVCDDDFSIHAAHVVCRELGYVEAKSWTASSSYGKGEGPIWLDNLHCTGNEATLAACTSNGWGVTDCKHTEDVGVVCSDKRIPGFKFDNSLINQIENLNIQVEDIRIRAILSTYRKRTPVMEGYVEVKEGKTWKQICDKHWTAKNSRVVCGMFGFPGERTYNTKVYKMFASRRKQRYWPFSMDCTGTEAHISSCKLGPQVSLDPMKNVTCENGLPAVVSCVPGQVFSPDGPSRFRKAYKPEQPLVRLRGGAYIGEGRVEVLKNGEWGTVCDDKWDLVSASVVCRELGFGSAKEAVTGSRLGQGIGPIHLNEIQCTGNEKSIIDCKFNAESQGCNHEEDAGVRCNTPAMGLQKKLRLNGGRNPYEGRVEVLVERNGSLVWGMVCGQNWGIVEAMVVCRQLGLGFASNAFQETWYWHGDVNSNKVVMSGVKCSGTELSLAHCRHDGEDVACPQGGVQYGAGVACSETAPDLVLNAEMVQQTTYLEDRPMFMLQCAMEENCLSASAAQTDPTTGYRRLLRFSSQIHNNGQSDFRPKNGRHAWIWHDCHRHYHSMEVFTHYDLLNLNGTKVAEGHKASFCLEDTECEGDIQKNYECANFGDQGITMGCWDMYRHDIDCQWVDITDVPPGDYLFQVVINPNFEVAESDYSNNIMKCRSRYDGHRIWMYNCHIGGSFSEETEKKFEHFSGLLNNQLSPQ
# [2] = tested on: TGFβ receptor 1 and 2 (TGFβR1/2) kinases; details: cited from earlier work
# [3] = 26 IPF patients; oral co-administration; cited from earlier work
# [4] = cited from earlier work
# [5] = Plasma pharmacokinetics in rats after tracheal nebulization, intravenous injection and oral gavage (Example 1); type: in vivo, SD rats; details: for AUC(0-t) / Cmax: male, Sprague-Dawley; for AUC(0-t) / Cmax / F: rat plasma
# Description: Example 1: Plasma pharmacokinetics study in rats after administration of EGCG via tracheal nebulization, intravenous injection, and oral gavage.
# Materials: EGCG, content > 98wt%.
# Preparation of tracheal nebulization solution: Accurately weigh the EGCG compound and dissolve it in Solvent 1 to prepare a clear and transparent drug solution. Solvent 1 is composed of purified water, citric acid, and sodium citrate.
# Preparation of intravenous injection and oral gavage solutions: Accurately weigh the EGCG compound and dissolve it in saline.
# Animals: Clean-grade male SD rats, provided by Qinglongshan Animal Breeding Farm in Jiangning District, Nanjing City, with a body weight range of 160-200g.
# Tracheal Nebulization (inh): Rats in each tracheal nebulization group were anesthetized with isoflurane and fixed in a restraint device. An anesthetic laryngoscope was used to press the animal's tongue root and expose the glottis. A micro liquid nebulizer needle (blunt tip) filled with a specific amount of EGCG solution, was gently inserted into the trachea. The drug was nebulized into the lungs, the needle was quickly withdrawn, and the rat was removed from the holder, with its head rotated left and right to ensure even distribution of the drug across the lung lobes. The nebulized inhalation doses were 1.6 mg/kg, 3.2 mg/kg, and 6.4 mg/kg, with 5 rats in each dose group.
# Oral Gavage (po): The dosage for each rat was determined based on body weight. An appropriate size syringe and gavage tube were used to administer the drug orally. The dose was 60 mg/kg, with 5 rats.
# Intravenous Injection (iv): EGCG was administered via tail vein injection. The dose was 3.2 mg/kg, with 5 rats in total.
# Blood samples were collected from the experimental groups via the orbital venous plexus before administration (0 min) and at 5 min, 15 min, 30 min, 1 h, 2 h, 4 h, and 6 h after administration (8 sampling points in total), with approximately 50-100 µL of whole blood collected at each point.
# After collection at the specified time points, blood samples were placed in heparinized tubes, centrifuged, and plasma was separated into centrifuge tubes, then stored at -70°C for subsequent analysis.
# Mass spectrometry conditions: Determined using UPLC-MS/MS. Chromatographic conditions: Determined using. Pharmacokinetic parameters were calculated using the WinNonlin pharmacokinetic software with statistical moment methods for each animal.
# [6] = inhaled, tracheal nebulization (inh) 1.6 mg/kg
# [7] = inhaled, tracheal nebulization (inh) 3.2 mg/kg
# [8] = inhaled, tracheal nebulization (inh) 6.4 mg/kg
# [9] = intravenous injection (iv) 3.2 mg/kg
structure (smiles),measurement,setting,value
"O=C(O[C@@H]1Cc2c(O)cc(O)cc2O[C@@H]1c1cc(O)c(O)c(O)c1)c1cc(O)c(O)c(O)c1 [EGCG, (-)-Epigallocatechin gallate]",inhibition of LOXL2,[1],effectively inhibit
same,inhibition of TGFβR1/2 kinases,[2],effectively inhibit
same,reduction of the plasma exposure of Nintedanib on co-administration,[3],about 21%
same,serum transaminases,[4]; daily oral intake at doses equal to or higher than 800 mg,significantly increased serum transaminases
same,body weight of patients,[4]; oral,significantly reduce the body weight
same,AUC(0-t),[5]; [6],409 ± 75.6 ng·h/mL
same,Cmax,[5]; [6],298 ± 91.9 ng/mL
same,AUC(0-t),[5]; [7],1120 ± 220 ng·h/mL
same,Cmax,[5]; [7],1120 ± 127 ng/mL
same,AUC(0-t),[5]; [8],1860 ± 595 ng·h/mL
same,Cmax,[5]; [8],2020 ± 658 ng/mL
same,AUC(0-t),[5]; [9],1680 ± 614 ng·h/mL
same,Cmax,[5]; [9],1920 ± 789 ng/mL
same,AUC(0-t),[5]; oral gavage (po) 60 mg/kg,372 ± 167 ng·h/mL
same,Cmax,[5]; oral gavage (po) 60 mg/kg,118 ± 73 ng/mL
same,dose ratio between oral gavage and inhalation when achieving the same plasma exposure level,"[5]; po 60 mg/kg: inh 1.6 mg/kg, rat",37.5 times
same,F,[5]; oral gavage (po) 60 mg/kg,1.2±0.0%
same,F,[5]; tracheal nebulization (inh) 1.6 mg/kg,48.7±9.0%
same,F,[5]; tracheal nebulization (inh) 3.2 mg/kg,66.9±13.1%
same,F,[5]; tracheal nebulization (inh) 6.4 mg/kg,55.3±17.7%
